In patent US20100152215A1, “METHODS OF IDENTIFYING ACTIVATORS OF LYN KINASE” (MELIOR PHARMACEUTICALS I, INC., priority 2007, published 2010):

Tests used:
Test in all cases: kinase screen for inhibition or activation
Format in all cases: biochemical
[1] = target: Lyn (Homo sapiens, UniProt P07948); settings: 10 μM
Experimental: (§1) A kinase screen was conducted in which Compound 102 (10 μM) was screened against 49 kinases for inhibition or activation. Any kinase that was activated or inhibited by at least 20% was considered to be a significant effect. Of the 49 kinases screened, Lyn kinase was activated by 51%. In a repeat experiment, Lyn kinase activity was increased by 57%.

[2] = target: EphA2 (Homo sapiens, UniProt P29317); settings: 10 μM
Experimental: as §1

[3] = target: cKit (Homo sapiens, UniProt P10721); settings: 10 μM
Experimental: as §1

[4] = target: MET (Homo sapiens, UniProt P08581); settings: 10 μM
Experimental: as §1

[5] = target: PAK2 (Homo sapiens, UniProt Q13177); settings: 10 μM
Experimental: as §1

[6] = target: InsR (Homo sapiens, UniProt P06213); settings: 10 μM
Experimental: as §1

[7] = target: Fyn (Homo sapiens, UniProt P06241); settings: 10 μM
Experimental: as §1

[8] = target: RSK1 (Homo sapiens, UniProt Q15418); settings: 10 μM
Sequence of RSK1 (Q15418 whole entry, species assumed): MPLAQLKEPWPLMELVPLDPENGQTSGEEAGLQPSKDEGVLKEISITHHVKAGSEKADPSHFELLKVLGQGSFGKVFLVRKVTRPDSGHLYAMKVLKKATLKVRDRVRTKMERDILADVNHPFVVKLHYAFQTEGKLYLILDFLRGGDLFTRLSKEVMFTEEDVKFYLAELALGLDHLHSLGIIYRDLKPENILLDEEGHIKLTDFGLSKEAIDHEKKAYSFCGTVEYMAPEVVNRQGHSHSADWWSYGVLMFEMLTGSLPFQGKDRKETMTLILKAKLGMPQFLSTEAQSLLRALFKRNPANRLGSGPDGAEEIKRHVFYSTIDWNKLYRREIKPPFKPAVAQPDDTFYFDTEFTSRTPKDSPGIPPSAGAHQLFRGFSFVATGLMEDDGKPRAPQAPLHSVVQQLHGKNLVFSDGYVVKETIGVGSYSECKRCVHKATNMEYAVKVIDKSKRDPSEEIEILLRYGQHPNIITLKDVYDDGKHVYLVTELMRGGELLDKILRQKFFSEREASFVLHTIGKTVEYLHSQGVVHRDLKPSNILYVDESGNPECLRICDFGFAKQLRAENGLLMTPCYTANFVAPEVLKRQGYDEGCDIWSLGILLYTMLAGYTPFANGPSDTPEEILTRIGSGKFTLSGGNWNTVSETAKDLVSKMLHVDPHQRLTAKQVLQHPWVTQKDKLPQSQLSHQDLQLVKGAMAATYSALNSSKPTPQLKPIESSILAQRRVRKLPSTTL
Experimental: as §1

[9] = target: PKCz (Homo sapiens, UniProt Q05513); settings: 10 μM
Experimental: as §1

[10] = tested on: MAPK3 (p38); settings: 10 μM
Experimental: as §1

[11] = target: KDR (FLK1, VEGFR2) (Homo sapiens, UniProt P35968); settings: 10 μM
Sequence of KDR (FLK1, VEGFR2) (P35968 20-1356, species assumed): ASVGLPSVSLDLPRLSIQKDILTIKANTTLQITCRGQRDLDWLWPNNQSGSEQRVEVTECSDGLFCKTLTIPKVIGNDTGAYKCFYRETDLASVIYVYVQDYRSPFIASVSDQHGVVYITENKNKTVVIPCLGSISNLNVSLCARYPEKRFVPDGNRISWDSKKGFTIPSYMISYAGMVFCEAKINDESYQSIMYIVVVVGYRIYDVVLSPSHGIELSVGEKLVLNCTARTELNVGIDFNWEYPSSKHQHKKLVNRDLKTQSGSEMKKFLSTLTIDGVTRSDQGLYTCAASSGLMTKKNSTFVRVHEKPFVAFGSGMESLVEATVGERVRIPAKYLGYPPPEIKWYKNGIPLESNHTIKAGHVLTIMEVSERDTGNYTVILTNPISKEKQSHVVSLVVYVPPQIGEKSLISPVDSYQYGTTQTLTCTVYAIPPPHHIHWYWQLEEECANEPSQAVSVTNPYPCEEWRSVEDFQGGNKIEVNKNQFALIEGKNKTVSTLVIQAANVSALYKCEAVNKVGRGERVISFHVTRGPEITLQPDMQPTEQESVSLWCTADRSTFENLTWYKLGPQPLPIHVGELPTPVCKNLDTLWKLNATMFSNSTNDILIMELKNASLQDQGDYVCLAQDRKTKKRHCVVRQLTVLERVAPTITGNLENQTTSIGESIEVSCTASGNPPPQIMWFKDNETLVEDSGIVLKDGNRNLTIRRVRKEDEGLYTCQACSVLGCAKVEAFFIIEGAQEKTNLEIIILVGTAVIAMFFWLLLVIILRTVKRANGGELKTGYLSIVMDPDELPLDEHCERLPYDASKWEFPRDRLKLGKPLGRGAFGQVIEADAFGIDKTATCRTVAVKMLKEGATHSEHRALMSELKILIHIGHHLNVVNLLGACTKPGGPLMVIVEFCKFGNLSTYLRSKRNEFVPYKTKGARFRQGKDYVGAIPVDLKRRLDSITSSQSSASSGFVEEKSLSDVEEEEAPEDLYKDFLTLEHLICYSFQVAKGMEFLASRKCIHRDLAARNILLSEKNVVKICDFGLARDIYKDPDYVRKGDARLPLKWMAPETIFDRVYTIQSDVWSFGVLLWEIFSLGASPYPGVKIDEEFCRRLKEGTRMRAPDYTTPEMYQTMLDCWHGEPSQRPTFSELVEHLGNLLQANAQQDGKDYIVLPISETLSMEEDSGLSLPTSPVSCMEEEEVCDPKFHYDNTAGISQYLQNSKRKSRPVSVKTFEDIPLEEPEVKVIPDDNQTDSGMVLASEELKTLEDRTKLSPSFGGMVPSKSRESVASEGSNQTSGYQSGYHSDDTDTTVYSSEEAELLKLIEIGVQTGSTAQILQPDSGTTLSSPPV
Experimental: as §1

[12] = target: PKD2 (Homo sapiens, UniProt Q9BZL6); settings: 10 μM
Sequence of PKD2 (Q9BZL6 whole entry): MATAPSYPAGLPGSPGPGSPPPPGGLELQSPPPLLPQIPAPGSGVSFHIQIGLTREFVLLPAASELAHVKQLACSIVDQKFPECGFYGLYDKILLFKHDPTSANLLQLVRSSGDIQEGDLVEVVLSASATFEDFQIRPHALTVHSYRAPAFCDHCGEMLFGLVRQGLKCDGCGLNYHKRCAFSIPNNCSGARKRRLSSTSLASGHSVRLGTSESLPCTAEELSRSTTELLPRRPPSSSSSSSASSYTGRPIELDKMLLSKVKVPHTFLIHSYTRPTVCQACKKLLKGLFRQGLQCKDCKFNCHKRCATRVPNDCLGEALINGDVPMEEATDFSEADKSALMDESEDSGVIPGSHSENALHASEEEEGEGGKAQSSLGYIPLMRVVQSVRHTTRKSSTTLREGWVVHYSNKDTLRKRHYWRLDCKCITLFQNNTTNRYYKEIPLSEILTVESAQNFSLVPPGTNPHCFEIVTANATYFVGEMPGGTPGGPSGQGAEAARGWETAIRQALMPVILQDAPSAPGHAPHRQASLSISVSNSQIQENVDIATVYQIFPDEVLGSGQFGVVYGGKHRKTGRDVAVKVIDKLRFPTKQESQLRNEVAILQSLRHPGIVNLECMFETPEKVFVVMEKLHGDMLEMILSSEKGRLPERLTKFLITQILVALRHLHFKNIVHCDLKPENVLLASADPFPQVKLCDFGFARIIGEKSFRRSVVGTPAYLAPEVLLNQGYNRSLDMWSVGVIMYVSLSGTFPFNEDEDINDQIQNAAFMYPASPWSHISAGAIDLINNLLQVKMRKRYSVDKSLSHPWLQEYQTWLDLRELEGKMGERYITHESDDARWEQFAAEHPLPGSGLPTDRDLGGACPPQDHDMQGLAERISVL
Experimental: as §1

[13] = target: Akt1 (Homo sapiens, UniProt P31749); settings: 10 μM
Experimental: as §1

[14] = target: GSK3b (Homo sapiens, UniProt P49841); settings: 10 μM
Experimental: as §1

[15] = target: CHK2 (Homo sapiens, UniProt O96017); settings: 10 μM
Experimental: as §1

[16] = target: Flt3 (Homo sapiens, UniProt P36888); settings: 10 μM
Experimental: as §1

[17] = target: Abl (Homo sapiens, UniProt P00519); settings: 10 μM
Experimental: as §1

[18] = target: CaMK4 (Homo sapiens, UniProt Q16566); settings: 10 μM
Experimental: as §1

[19] = target: MST2 (Homo sapiens, UniProt Q13188); settings: 10 μM
Experimental: as §1

[20] = target: BTK (Homo sapiens, UniProt Q06187); settings: 10 μM
Experimental: as §1

[21] = target: Syc (Homo sapiens, UniProt P43405); settings: 10 μM
Experimental: as §1

[22] = target: AurA (Homo sapiens, UniProt O14965); settings: 10 μM
Experimental: as §1

[23] = target: ROCK2 (Homo sapiens, UniProt O75116); settings: 10 μM
Sequence of ROCK2 (O75116 whole entry, species assumed): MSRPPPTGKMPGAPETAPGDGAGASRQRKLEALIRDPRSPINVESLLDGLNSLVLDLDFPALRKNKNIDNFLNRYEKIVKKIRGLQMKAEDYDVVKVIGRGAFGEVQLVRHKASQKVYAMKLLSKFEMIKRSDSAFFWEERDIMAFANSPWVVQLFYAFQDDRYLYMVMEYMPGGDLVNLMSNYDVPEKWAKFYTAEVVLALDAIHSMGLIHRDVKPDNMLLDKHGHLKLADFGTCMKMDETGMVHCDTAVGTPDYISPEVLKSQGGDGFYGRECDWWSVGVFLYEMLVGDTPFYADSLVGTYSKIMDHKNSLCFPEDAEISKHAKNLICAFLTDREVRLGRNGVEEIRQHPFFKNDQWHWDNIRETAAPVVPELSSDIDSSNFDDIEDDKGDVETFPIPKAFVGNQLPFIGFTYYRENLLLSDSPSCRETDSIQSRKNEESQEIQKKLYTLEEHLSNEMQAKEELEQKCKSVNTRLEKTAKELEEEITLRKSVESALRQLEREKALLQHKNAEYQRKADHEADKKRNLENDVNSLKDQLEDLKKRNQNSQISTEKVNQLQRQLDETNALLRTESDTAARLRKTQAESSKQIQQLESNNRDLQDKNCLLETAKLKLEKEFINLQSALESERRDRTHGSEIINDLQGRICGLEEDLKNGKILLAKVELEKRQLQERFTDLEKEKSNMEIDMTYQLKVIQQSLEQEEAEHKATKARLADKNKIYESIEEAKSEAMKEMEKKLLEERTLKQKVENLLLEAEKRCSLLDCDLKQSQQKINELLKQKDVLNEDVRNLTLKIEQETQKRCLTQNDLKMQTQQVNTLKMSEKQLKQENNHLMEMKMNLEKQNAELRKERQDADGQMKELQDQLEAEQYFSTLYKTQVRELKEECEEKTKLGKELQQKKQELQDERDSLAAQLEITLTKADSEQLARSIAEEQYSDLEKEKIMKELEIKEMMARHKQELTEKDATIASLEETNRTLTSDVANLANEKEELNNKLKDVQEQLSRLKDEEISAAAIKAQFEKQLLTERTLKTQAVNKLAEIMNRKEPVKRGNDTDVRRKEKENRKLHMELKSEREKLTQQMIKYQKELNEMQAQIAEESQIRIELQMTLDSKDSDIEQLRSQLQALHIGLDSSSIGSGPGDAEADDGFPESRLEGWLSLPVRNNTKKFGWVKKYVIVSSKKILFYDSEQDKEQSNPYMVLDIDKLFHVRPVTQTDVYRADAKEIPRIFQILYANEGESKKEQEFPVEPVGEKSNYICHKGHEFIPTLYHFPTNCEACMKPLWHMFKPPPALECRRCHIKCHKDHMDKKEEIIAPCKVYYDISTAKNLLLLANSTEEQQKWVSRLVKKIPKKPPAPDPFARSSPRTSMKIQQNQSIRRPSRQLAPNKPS
Experimental: as §1

[24] = target: Lck (Homo sapiens, UniProt P06239); settings: 10 μM
Experimental: as §1

[25] = target: CDK2/cyclinA (Homo sapiens, UniProt P24941); settings: 10 μM
Experimental: as §1

[26] = target: cRAF (Homo sapiens, UniProt P04049); settings: 10 μM
Experimental: as §1

[27] = target: MAPK1 (Homo sapiens, UniProt P28482); settings: 10 μM
Experimental: as §1

[28] = tested on: AMPK; settings: 10 μM, positive = activation, negative = inhibition
Experimental: as §1

[29] = target: MAPKAP2 (Homo sapiens, UniProt P49137); settings: 10 μM
Experimental: as §1

[30] = target: MAPKAP5 (Homo sapiens, UniProt Q8IW41); settings: 10 μM
Experimental: as §1

Sequence of Lyn (P07948 whole entry): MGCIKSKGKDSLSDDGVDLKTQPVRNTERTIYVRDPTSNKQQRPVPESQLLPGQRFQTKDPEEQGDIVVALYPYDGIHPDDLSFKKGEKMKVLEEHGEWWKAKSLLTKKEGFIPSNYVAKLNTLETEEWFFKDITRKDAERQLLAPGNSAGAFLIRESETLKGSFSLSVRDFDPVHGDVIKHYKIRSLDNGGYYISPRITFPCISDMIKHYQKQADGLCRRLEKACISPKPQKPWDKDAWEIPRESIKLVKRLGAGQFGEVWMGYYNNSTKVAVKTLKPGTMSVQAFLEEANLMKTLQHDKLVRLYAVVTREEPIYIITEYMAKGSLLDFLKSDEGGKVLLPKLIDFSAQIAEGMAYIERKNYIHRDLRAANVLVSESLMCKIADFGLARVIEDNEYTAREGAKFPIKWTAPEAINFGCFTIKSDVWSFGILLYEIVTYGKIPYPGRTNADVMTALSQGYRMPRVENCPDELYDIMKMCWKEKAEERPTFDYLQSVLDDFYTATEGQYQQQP

## Cc1cccc(Oc2cnc(=O)[nH]c2)c1 [Compound 102]
[1]; Lyn (repeat), repeat experiment, activation
  COMPOUND 102 ACTIVITY (% KINASE ACTIVITY): 57%
[1]; Lyn (repeat), repeat experiment, activation, listed as COMPOUND 102, 10 µM
  COMPOUND 102 ACTIVITY (% KINASE ACTIVITY): 57.11%
[1]; Lyn, first screen, activation
  COMPOUND 102 ACTIVITY (% KINASE ACTIVITY): 51%
[1]; Lyn, first screen, activation, listed as COMPOUND 102, 10 µM
  COMPOUND 102 ACTIVITY (% KINASE ACTIVITY): 51.05%
[1]; Lyn, third Lyn line of the table
  COMPOUND 102 ACTIVITY (% KINASE ACTIVITY): 57%
[2]
  COMPOUND 102 ACTIVITY (% KINASE ACTIVITY): 1.03%
[3]
  COMPOUND 102 ACTIVITY (% KINASE ACTIVITY): 18.79%
[4]
  COMPOUND 102 ACTIVITY (% KINASE ACTIVITY): 9.88%
[5]
  COMPOUND 102 ACTIVITY (% KINASE ACTIVITY): 1.55%
[6]
  COMPOUND 102 ACTIVITY (% KINASE ACTIVITY): 16.92%
[7]
  COMPOUND 102 ACTIVITY (% KINASE ACTIVITY): −4.64%
[8]
  COMPOUND 102 ACTIVITY (% KINASE ACTIVITY): 1.72%
[9]
  COMPOUND 102 ACTIVITY (% KINASE ACTIVITY): 9.05%
[10]
  COMPOUND 102 ACTIVITY (% KINASE ACTIVITY): −6.05%
[11]
  COMPOUND 102 ACTIVITY (% KINASE ACTIVITY): 0%
[12]
  COMPOUND 102 ACTIVITY (% KINASE ACTIVITY): −10.34%
[13]
  COMPOUND 102 ACTIVITY (% KINASE ACTIVITY): 1.51%
[14]
  COMPOUND 102 ACTIVITY (% KINASE ACTIVITY): 2.47%
[15]
  COMPOUND 102 ACTIVITY (% KINASE ACTIVITY): −6.17%
[16]
  COMPOUND 102 ACTIVITY (% KINASE ACTIVITY): 7.34%
[17]
  COMPOUND 102 ACTIVITY (% KINASE ACTIVITY): −4.04%
[18]
  COMPOUND 102 ACTIVITY (% KINASE ACTIVITY): 17.35%
[19]
  COMPOUND 102 ACTIVITY (% KINASE ACTIVITY): 4.59%
[20]
  COMPOUND 102 ACTIVITY (% KINASE ACTIVITY): 10%
[21]
  COMPOUND 102 ACTIVITY (% KINASE ACTIVITY): 11.12%
[22]
  COMPOUND 102 ACTIVITY (% KINASE ACTIVITY): −12.21%
[23]
  COMPOUND 102 ACTIVITY (% KINASE ACTIVITY): −3.05%
[24]
  COMPOUND 102 ACTIVITY (% KINASE ACTIVITY): 6.28%
[25]
  COMPOUND 102 ACTIVITY (% KINASE ACTIVITY): −3.93%
[26]
  COMPOUND 102 ACTIVITY (% KINASE ACTIVITY): 5.08%
[27]
  COMPOUND 102 ACTIVITY (% KINASE ACTIVITY): 0.6%
[28]
  COMPOUND 102 ACTIVITY (% KINASE ACTIVITY): −0.95%
[29]
  COMPOUND 102 ACTIVITY (% KINASE ACTIVITY): −13.04%
[30]
  COMPOUND 102 ACTIVITY (% KINASE ACTIVITY): 0.79%
